Test results reported in patent US20260008788A1, “AZA-FUSED RING COMPOUND, PREPARATION METHOD THEREFOR, AND USE THEREOF IN MEDICINE” (SUZHOU ARK BIOPHARMACEUTICAL CO., LTD., priority 2022, published 2026).

Each molecule was assayed against T1, PDE4B2 (Homo sapiens, UniProt Q07343) (assay: Inhibitory effect on PDE4 enzyme (AMP-Glo Assay kit), PDE4B2). Details: cAMP substrate, 60 minutes at room temperature, AMP-Glo detection.
T1 construct: purchased BPS bioscience 60042
Format: biochemical
Description: PDE4 enzyme can hydrolyze cAMP to produce AMP. The synthetic PDE4 enzyme inhibitor act together with PDE4 enzyme and the substrate cAMP for a certain period of time, and then the AMP-Glo™ Assay kit was used for detection. The detection is divided into two steps: first, converting the AMP produced in the reaction into ADP, and second, converting ADP into ATP. ATP binds to the reagent and emits […]. The fluorescence value is detected using an […]. IC50 value of the PDE4 enzyme inhibitor was calculated by plotting a graph with the […] values. The specific details are as follows:
The compound plate was centrifuged at 1000 rpm for 1 minute.
% Inhibition={1−(Average RLU of the compound−Average RLU of the positive control of the whole plate)/(Average RLU of the negative control of the whole plate−Average RLU of the positive control of the whole plate)}
The IC50 is calculated by fitting the % inhibition values and the logarithm of the compound concentration to a non-linear regression (dose response-variable slope) using Graphpad 8.0.

T1 sequence (Q07343 1-564 isoform Q07343-2): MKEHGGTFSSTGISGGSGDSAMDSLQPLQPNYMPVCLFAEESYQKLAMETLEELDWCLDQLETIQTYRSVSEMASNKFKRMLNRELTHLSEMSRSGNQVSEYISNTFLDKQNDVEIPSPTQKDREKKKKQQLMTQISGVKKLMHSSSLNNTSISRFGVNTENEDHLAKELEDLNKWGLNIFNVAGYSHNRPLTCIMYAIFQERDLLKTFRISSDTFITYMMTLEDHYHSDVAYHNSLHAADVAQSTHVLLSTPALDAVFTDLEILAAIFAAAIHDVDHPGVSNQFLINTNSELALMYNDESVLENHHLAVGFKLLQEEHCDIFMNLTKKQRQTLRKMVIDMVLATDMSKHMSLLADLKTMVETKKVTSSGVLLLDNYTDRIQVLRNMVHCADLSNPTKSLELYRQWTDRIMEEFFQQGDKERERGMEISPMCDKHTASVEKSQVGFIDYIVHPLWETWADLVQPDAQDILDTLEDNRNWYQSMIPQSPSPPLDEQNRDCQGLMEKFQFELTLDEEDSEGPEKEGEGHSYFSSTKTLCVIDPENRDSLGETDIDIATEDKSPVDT

SMILES | IC50
[O-][S@+]1CCc2nc(N3CCc4oc(C5CCCCC5)nc4C3)nc(NC3(CO)CCC3)c21 [Example 5, (R)-2-(2-cyclohexyl-6,7-dihydrooxazolo[4,5-c]pyridin-5(4H)-yl)-4-((1-(hydroxymethyl)cyclobutyl)amino)-6,7-dihydrothieno[3,2-d]pyrimidine 5-oxide] | 0.93 nM
[O-][S@+]1CCc2nc(N3CCc4cc(-c5ncccn5)ccc4C3)nc(NC34CC(CO)(C3)C4)c21 [Example 24, (R)-4-((3-(hydroxymethyl)bicyclo[1.1.1]pentan-1-yl)amino)-2-(6-(pyrimidin-2-yl)-3,4-dihydroisoquinolin-2(1H)-yl)-6,7-dihydrothieno[3,2-d]pyrimidine 5-oxide] | < 0.1 nM
[O-][S@+]1CCc2nc(N3CCc4c(cnn4-c4ccccc4)C3)nc(NC3(CO)CCC3)c21 [Example 12, (R)-4-((1-(hydroxymethyl)cyclobutyl)amino)-2-(1-phenyl-1,4,6,7-tetrahydro-5H-pyrazolo[4,3-c]pyridin-5-yl)-6,7-dihydrothieno[3,2-d]pyrimidine-5-oxide] | 0.63 nM

Further lines, results first:

IC50 | SMILES
0.5 nM | COc1nc(C)cc(C)c1CNc1nc(N2CCc3oc(-c4ccc(F)cc4)nc3C2)nc2c1[S@+]([O-])CC2 [Example 18, (R)-2-(2-(4-fluorophenyl)-6,7-dihydrooxazolo[4,5-c]pyridin-5(4H)-yl)-4-(((2-methoxy-4,6-dimethylpyridin-3-yl)methyl)amino)-6,7-dihydrothieno[3,2-d]pyrimidine 5-oxide]
8.9 nM | Cc1cc(C(F)(F)F)c(CNc2nc(N3CCc4oc(-c5ccc(F)cc5)nc4C3)nc3c2[S@+]([O-])CC3)c(=O)[nH]1 [Example 17, (R)-3-(((2-(2-(4-fluorophenyl)-6,7-dihydrooxazolo[4,5-c]pyridin-5(4H)-yl)-5-oxido-6,7-dihydrothieno[3,2-d]pyrimidin-4-yl)amino)methyl)-6-methyl-4-(trifluoromethyl)pyridin-2(1H)-one]
